Results on three compounds are retold here after US5116749A, “γ-glutamylcysteine transferase” (Consortium fur Elektrochemische Industrie GmbH, priority 1988, dated 1992).

As usually defined, the Km is the concentration of substrate that gives half-maximal velocity.

Test [1] relates to γ-glutamylcysteine transferase. Kind of test: KM of γ-glutamylcysteine transferase for its substrates. The test is classed as biochemical, Silene cucubalus. As to conditions: 30° C. and pH=7.8.
In test [2] the test system is γ-glutamylcysteine transferase.

As to `Cc1c(C)n2c(CSC[C@H](NC(=O)CC[C@H](N)C(=O)O)C(=O)NCC(=O)O)c(C)c(=O)n2c1=O` [glutathione S-biman], in test [1], the Km worked out at 1 mM.
On the same count and under the same terms, next, `N[C@@H](CCC(=O)N[C@@H](CS)C(=O)NCC(=O)O)C(=O)O` [glutathione]: 6.8 mM.
On to `O=C(O)CN(CCN(CC(=O)O)CC(=O)O)CC(=O)O` [ethylenediaminetetraacetic acid (EDTA), ethylenediaminetetraacetic acid], for which, in test [2] (after removal of EDTA and addition of heavy metal ions), the “reversibility of the inhibition” value is listed as “reversible”. Besides, in test [2] (in the presence of ethylenediaminetetraacetic acid), the “inhibition in the presence of EDTA” value is given as “complete inhibition”.
